Measured values from patent publication US11617726B2, “Method for preventing, treating, or ameliorating a microbial infection” (priority 2018, dated 2023).

System: Acinetobacter baumannii isolates
Assay: Antimicrobial susceptibility test, disc diffusion method (CLSI M100-S24)
Assay type: cell-based
Parameters: key to Inhibition zone: “NZ” indicated that no zone of inhibition was observed
Details: for Inhibition zone: disc diffusion; for susceptibility category: IP disc
Protocol: A total of 33 non-duplicate, non-consecutive clinical isolates of Multi-Drug Resistant (MDR) Acinetobacter baumannii were collected from burn wards (“AB1-AB33”). Acinetobacter baumannii ATCC BAA 747 and Pseudomonas aeruginosa ATCC 27853 were used as control strains. The isolates were stored at −80° C. in trypticase soy broth containing 20% glycerol.
Antimicrobial susceptibility tests of the collection of isolates were conducted using the disc diffusion method. The experiment was performed according to the recommendations and guidelines of Clinical Laboratory Standard Institutes (CLSI M100-S24; 2014). Clinical and Laboratory Standards Institute (CLSI), “Performance standards for antimicrobial susceptibility testing; twenty-fourth informational supplement,” Document M100-S24, Clinical and Laboratory Standards Institute (CLSI), Wayne, Pa., USA, 2014.
A panel of commercial antibiotic discs (Amoxicillin (AMX), Amoxicillin/clavulanic acid (AMX/CLA), Piperacillin (PIP), Piperacillin/Tazobactam (PIP/TAZ), Ceftazidime (CAZ), Cefotaxime (CTX), Cefepime (FEP), Cefoxitin (FOX), Aztreonam (ATM), Imipenem (IP), Gentamicin (GEN), Amikacin (AK), Neomycin (NEO), Levofloxacin (LEV), Chloramphenicol (CHL), Tetracycline (TET), sulfamethoxazole/trimethoprim (SUL/TRI) was used for susceptibility testing. All commercial antibiotic discs were purchased from BBL (Becton Dickinson, USA).
Forty grams of Mueller-Hinton Agar (MHA) were suspended in 1 Liter distilled water and then boiled to dissolve the powder completely. The medium was sterilized by autoclaving at 121° C. for 15 min. After autoclaving, the medium was cooled to 45° C. and 25 mL of molten agar media was poured into sterile Petri dishes (90 mm diameter) to give a depth of about 4 mm. The surface of the agar was dried to remove excess moisture before use. The plates were stored at 4-8° C. in sealed plastic bags if not used immediately.
The inoculum suspension was prepared by selecting three to five morphologically similar colonies from overnight growth (16-24 h of incubation) on blood agar medium. […] The suspension density was measured using a UV spectrophotometer calibrated with a 0.5 McFarland standard. The density of the suspension was adjusted to McFarland 0.5 by addition of saline or more microorganisms. The adjusted inoculum suspension was used within 60 min of preparation.
A sterile cotton swab was dipped into the bacterial suspension and the excess fluid was removed by turning the swab against the inside wall of the tube to avoid over-inoculation of plates. The inoculum was spread evenly over the entire surface of the agar plate by swabbing in three directions.
The predetermined panel of antimicrobial disks was applied firmly on the inoculated Mueller-Hinton agar surface within 15 min of inoculation of the plates by a disc dispenser device. A maximum of six disks were accommodated on a 90-mm circular plate.
Within 15 min of application of antimicrobial disks, the plates were inverted and incubated aerobically at 35-37° C. for 18-20 h.
After incubation, inhibition zones were measured at the point where no obvious growth is detected by the unaided eye when the plate is held about 30 cm from the eye. Inhibition zone diameters were measured to the nearest millimeter with a ruler. The plates were read from the back of the plate with reflected light against a dark background. Zone diameters were interpreted and categorized as susceptible “S”, intermediate “I”, or resistant “R” according to the CLSI clinical breakpoint tables (see Table 1 and Table 2).

Row | Compound | Inhibition zone (isolate AB1) | Inhibition zone (isolate AB2) | Inhibition zone (isolate AB3) | Inhibition zone (isolate AB4) | Inhibition zone (isolate AB5) | Inhibition zone (isolate AB6) | Inhibition zone (isolate AB7) | Inhibition zone (isolate AB8) | Inhibition zone (isolate AB9) | Inhibition zone (isolate AB10) | Inhibition zone (isolate AB11) | Inhibition zone (isolate AB12) | Inhibition zone (isolate AB13) | Inhibition zone (isolate AB14) | Inhibition zone (isolate AB15) | Inhibition zone (isolate AB16) | Inhibition zone (isolate AB17) | Inhibition zone (isolate AB18) | Inhibition zone (isolate AB19) | Inhibition zone (isolate AB20) | other results
1 | CN(C)[C@@H]1C(O)=C(C(N)=O)C(=O)[C@@]2(O)C(O)=C3C(=O)c4c(O)cccc4[C@@](C)(O)[C@H]3C[C@@H]12 [TET, Tetracycline] | NZ | 22 mm | 22 mm | 21 mm | NZ | NZ | 21 mm | 26 mm | 23 mm | NZ | NZ | NZ | NZ | 24 mm | 19 mm | NZ | 21 mm | 20 mm | 17 mm | 28 mm | Inhibition zone (isolate AB21): 19 mm; Inhibition zone (isolate AB22): 20 mm; Inhibition zone (isolate AB23): 23 mm; Inhibition zone (isolate AB24): 19 mm; Inhibition zone (isolate AB25): 25 mm; Inhibition zone (isolate AB26): NZ; Inhibition zone (isolate AB27): 8 mm; Inhibition zone (isolate AB28): 20 mm; Inhibition zone (isolate AB29): 19 mm; Inhibition zone (isolate AB30): 20 mm; Inhibition zone (isolate AB31): NZ; Inhibition zone (isolate AB32): 28 mm; Inhibition zone (isolate AB33): 24 mm
2 | CCN1CCN(C(=O)N[C@@H](C(=O)N[C@@H]2C(=O)N3[C@@H]2SC(C)(C)[C@@H]3C(=O)O)c2ccccc2)C(=O)C1=O [PIP, Piperacillin] | 21 mm | 20 mm | 32 mm | 21 mm | NZ | 18 mm | NZ | NZ | 24 mm | NZ | NZ | NZ | NZ | NZ | NZ | 16 mm | 15 mm | 8 mm | NZ | NZ | Inhibition zone (isolate AB21): NZ; Inhibition zone (isolate AB22): NZ; Inhibition zone (isolate AB23): NZ; Inhibition zone (isolate AB24): NZ; Inhibition zone (isolate AB25): 10 mm; Inhibition zone (isolate AB26): NZ; Inhibition zone (isolate AB27): 8 mm; Inhibition zone (isolate AB28): 7 mm; Inhibition zone (isolate AB29): NZ; Inhibition zone (isolate AB30): 8 mm; Inhibition zone (isolate AB31): 8 mm; Inhibition zone (isolate AB32): 8 mm; Inhibition zone (isolate AB33): 22 mm
3 | C[C@@H](O)[C@H]1C(=O)N2C(C(=O)O)=C(SCCN=CN)C[C@H]12 [IP, Imipenem] | NZ | NZ | NZ | NZ | 8 mm | 12 mm | NZ | 7 mm | NZ | NZ | NZ | 11 mm | 9 mm | 15 mm | NZ | 34 mm | 15 mm | NZ | NZ | 15 mm | susceptibility category (isolate AB16): S (Sensitive ≥22); Inhibition zone (isolate AB21): NZ; Inhibition zone (isolate AB22): 15 mm; Inhibition zone (isolate AB23): 20 mm; Inhibition zone (isolate AB24): NZ; susceptibility category (isolate AB25): S (Sensitive ≥22); Inhibition zone (isolate AB25): 23 mm; susceptibility category (isolate AB26): S (Sensitive ≥22); Inhibition zone (isolate AB26): 22 mm; Inhibition zone (isolate AB27): 9 mm; Inhibition zone (isolate AB28): 8 mm; Inhibition zone (isolate AB29): 9 mm; Inhibition zone (isolate AB30): 9 mm; Inhibition zone (isolate AB31): 9 mm; Inhibition zone (isolate AB32): 18 mm; Inhibition zone (isolate AB33): NZ
4 | CC(C)(O/N=C(\C(=O)N[C@@H]1C(=O)N2C(C(=O)[O-])=C(C[n+]3ccccc3)CS[C@H]12)c1csc(N)n1)C(=O)O [CAZ, Ceftazidime] | 20 mm | 17 mm | 26 mm | 21 mm | 9 mm | 28 mm | NZ | NZ | 21 mm | NZ | NZ | NZ | NZ | NZ | NZ | 32 mm | 12 mm | NZ | NZ | NZ | Inhibition zone (isolate AB21): NZ; Inhibition zone (isolate AB22): NZ; Inhibition zone (isolate AB23): NZ; Inhibition zone (isolate AB24): NZ; Inhibition zone (isolate AB25): 17 mm; Inhibition zone (isolate AB26): 15 mm; Inhibition zone (isolate AB27): 8 mm; Inhibition zone (isolate AB28): 8 mm; Inhibition zone (isolate AB29): NZ; Inhibition zone (isolate AB30): NZ; Inhibition zone (isolate AB31): 8 mm; Inhibition zone (isolate AB32): 8 mm; Inhibition zone (isolate AB33): 22 mm
5 | CO/N=C(\C(=O)N[C@@H]1C(=O)N2C(C(=O)O)=C(COC(C)=O)CS[C@H]12)c1csc(N)n1 [CTX, Cefotaxime] | NZ | NZ | 15 mm | 8 mm | NZ | 17 mm | NZ | NZ | 11 mm | NZ | NZ | NZ | NZ | NZ | NZ | 32 mm | NZ | NZ | NZ | NZ | Inhibition zone (isolate AB21): NZ; Inhibition zone (isolate AB22): NZ; Inhibition zone (isolate AB23): NZ; Inhibition zone (isolate AB24): NZ; Inhibition zone (isolate AB25): 16 mm; Inhibition zone (isolate AB26): NZ; Inhibition zone (isolate AB27): NZ; Inhibition zone (isolate AB28): NZ; Inhibition zone (isolate AB29): NZ; Inhibition zone (isolate AB30): NZ; Inhibition zone (isolate AB31): 8 mm; Inhibition zone (isolate AB32): 8 mm; Inhibition zone (isolate AB33): 21 mm
